For 24 compounds, IC50 results are on record in patent publication US10081634B2, “Heterocyclic compound” (Daewoong Pharmaceutical Co., Ltd., priority 2014, dated 2018).

Like-named read-outs stand apart in the source and are kept apart here.

In one test the test system is NCI-H460 cells. The test is described as follows: Cancer cell growth inhibition experiment (MTT assay). The class given is cell-based. The conditions noted are these: Homo sapiens; NCI-H460 lung cancer cell line; 48 hours treatment; MTT cell viability. The protocol:
NCI-H460 cells, lung cancer cell lines, were cultured in 5% CO2, 37° C. incubator using a flask for 75 cm^2 tissue culture. 96-well plates were used for the evaluation. These were prepared by differently applying at concentrations in the range of 6,000 to 12,000 cells/well according to the growth rate of the cell lines. The medium containing 5% FBS were dispensed in 200 μL/well and used. The medium were cultured for 24 hours. After confirming the cell status and dispensing form of a 96-well plate under a microscope, they were used for subsequent experiments. The compounds were evaluated at concentrations of 100, 30, 10, 3, 1, 0.3, 0.03, 0.01 μM. After removing the existing medium, the compounds with various concentrations were treated in an amount of 200 μL/well. The compounds-treated plates were further cultured for 48 hours, and the cell viabilities were measured by MTT assay to calculate IC50 values.
% Inhibition and IC50 values of the respective compounds were calculated and analyzed using Sigma Plot 8.0. The case where the derived IC50 is 5 μM or less is represented by “A”, the case where the IC50 is 5 to 30 μM is represented by “B”, and the case where the IC50 is 30 μM or higher is represented by “C”.

For test [1], the target named is T1, PRS (prolyl-tRNA synthetase) (Homo sapiens, UniProt P07814).
T1 construct: the portion corresponding to PRS in cDNA of EPRS was subcloned; made in house
T1 sequence (P07814 1007-1512 limits assumed): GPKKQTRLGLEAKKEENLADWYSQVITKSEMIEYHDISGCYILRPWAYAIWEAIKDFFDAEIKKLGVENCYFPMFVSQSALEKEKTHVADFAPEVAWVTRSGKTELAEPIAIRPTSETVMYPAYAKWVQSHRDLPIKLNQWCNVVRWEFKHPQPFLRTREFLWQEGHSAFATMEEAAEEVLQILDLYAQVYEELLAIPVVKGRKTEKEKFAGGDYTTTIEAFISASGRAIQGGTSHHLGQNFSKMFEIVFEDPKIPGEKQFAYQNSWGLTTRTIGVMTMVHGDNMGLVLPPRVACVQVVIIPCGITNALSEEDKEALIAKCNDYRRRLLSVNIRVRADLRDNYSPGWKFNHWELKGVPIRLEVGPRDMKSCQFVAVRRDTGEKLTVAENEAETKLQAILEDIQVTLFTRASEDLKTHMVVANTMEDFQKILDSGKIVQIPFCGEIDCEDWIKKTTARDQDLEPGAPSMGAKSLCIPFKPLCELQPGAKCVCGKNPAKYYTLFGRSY
The test is described as follows: In vitro PRS enzyme activity inhibition experiment ([3H]proline, liquid scintillation). It counts as biochemical. The protocol: In order to confirm the biological activities of the compounds prepared in Examples, % inhibition or IC50 values of PRS enzyme ([…]) activities were calculated.
Specifically, the portion corresponding to PRS in cDNA of EPRS was subcloned, and the obtained high-purity PRS protein was purified and used in the experiment. The compounds (1 μM) prepared in Examples were added into the reaction buffer (20 mM KPO4 (pH 7.4), 6 mM MgAc, 5 mM ATP, […] tRNA, 0.5 mM DTT, 20 mCi[^3H]proline (1 mCi/mL)) and allowed to react at 37° C. for 5 to 10 minutes. The reaction was terminated with 3M paper that was previously dried by addition of 5% TCA. The radioactivity was measured using a liquid scintillation counter.
IC50 values of the respective compounds were calculated and analyzed using Microsoft Excel or Sigma Plot 8.0. In Table 1, the results are divided into A, B and C according to the range of IC50. The case where the derived IC50 is 100 nM or less is represented by “A”, the case where the IC50 is 100 to 500 nM is represented by “B”, and the case where the IC50 is 500 nM or higher is represented by “C”.

Where [2] appears, read: purified PRS protein subcloned from EPRS cDNA, 37° C., 5 to 10 minutes, read-out: PRS IC50.

In the case of `Cc1cc(Cl)cc2c1ncn2CC(=O)C[C@H]1NCCC[C@@H]1O` [Example 24, 1-(6-chloro-4-methyl-1H-benzo[d]imidazol-1-yl)-3-((2R,3S)-3-hydroxypiperidin-2-yl)propan-2-one], the values for the 50% inhibitory concentration (IC50) (in the test with NCI-H460 cells; in test [1] (setting [2])) were 5 to 30 µM and less than 0.1 µM, respectively.

Consider `O=C(C[C@H]1NCCC[C@@H]1O)Cn1cnc2c(C(F)(F)F)c(F)ccc21` [Example 17, 1-(5-fluoro-4-(trifluoromethyl)-1H-benzo[d]imidazol-1-yl)-3-((2R,3S)-3-hydroxypiperidin-2-yl)propan-2-one], for which the IC50 is 5 to 30 µM with NCI-H460 cells and less than 0.1 µM in test [1] (setting [2]).

Take `O=C(C[C@H]1NCCC[C@@H]1O)Cn1cnc2cc(Br)ccc21` [Example 4, 1-(5-bromo-1H-benzo[d]imidazol-1-yl)-3-((2R,3S)-3-hydroxypiperidin-2-yl)propan-2-one]: the 50% inhibitory concentration (IC50) was 5 to 30 µM in the test on NCI-H460 cells and less than 0.1 µM in test [1] (setting [2]).

For the compound `O=C(C[C@H]1NCCC[C@@H]1O)Cn1c(CO)nc2cc(OC(F)(F)F)ccc21` [Example 60, 1-(2-(hydroxymethyl)-5-(trifluoromethoxy)-1H-benzo[d]imidazol-1-yl)-3-((2R,3S)-3-hydroxypiperidin-2-yl)propan-2-one], the half-inhibitory concentration (IC50) in the test with NCI-H460 cells is no less than 30 µM; in test [1] (setting [2]) it was greater than 0.5 µM.

On to `Cc1c(F)ccc2c1ncn2CC(=O)C[C@H]1NCCC[C@@H]1O` [Example 13, 1-(5-fluoro-4-methyl-1H-benzo[d]imidazol-1-yl)-3-((2R,3S)-3-hydroxypiperidin-2-yl)propan-2-one], for which the IC50 is no more than 5 µM in the test with NCI-H460 cells and less than 0.1 µM in test [1] (setting [2]).

For the compound `O=C(C[C@H]1NCCC[C@@H]1O)Cn1cnc2c(Cl)c(F)ccc21` [Example 21, 1-(4-chloro-5-fluoro-1H-benzo[d]imidazol-1-yl)-3-((2R,3S)-3-hydroxypiperidin-2-yl)propan-2-one], the IC50 with NCI-H460 cells fell in the range of 5 to 30 µM; in test [1] (setting [2]), 0.1 to 0.5 µM.

Take `O=C(C[C@H]1NCCC[C@@H]1O)Cn1cnc2ccc(C(F)(F)F)cc21` [Example 7, 1-((2R,3S)-3-hydroxypiperidin-2-yl)-3-(6-(trifluoromethyl)-1H-benzo[d]imidazol-1-yl)propan-2-one]: the values for the IC50 (in the test with NCI-H460 cells; in test [1] (setting [2])) were 5 to 30 µM and less than 0.1 µM, respectively.

`OC(C[C@H]1NCCC[C@@H]1O)Cn1cnc2cc(Cl)c(Cl)cc21` (stereo partly drawn) [Example 70, (2R,3S)-2-(3-(5,6-dichloro-1H-benzo[d]imidazol-1-yl)-2-hydroxypropyl)piperidin-3-ol]: the half-inhibitory concentration (IC50) was 5 to 30 µM with NCI-H460 cells and 0.1 to 0.5 µM in test [1] (setting [2]).

With `O=C(C[C@H]1NCCC[C@@H]1O)Cn1cnc2c(Cl)c(Cl)ccc21` [Example 12, 1-(4,5-dichloro-1H-benzo[d]imidazol-1-yl)-3-((2R,3S)-3-hydroxypiperidin-2-yl)propan-2-one], the IC50 with NCI-H460 cells is no more than 5 µM; in test [1] (setting [2]) it was less than 0.1 µM.

Take `O=C(C[C@H]1NCCC[C@@H]1O)Cn1c(CO)nc2ccc(C(F)(F)F)cc21` [Example 59, 1-(2-(hydroxymethyl)-6-(trifluoromethyl)-1H-benzo[d]imidazol-1-yl)-3-((2R,3S)-3-hydroxypiperidin-2-yl)propan-2-one]: the half-maximal inhibitory concentration (IC50) in the test with NCI-H460 cells is 5 to 30 µM; in test [1] (setting [2]) it was less than 0.1 µM.

Turning to `O=C(C[C@H]1NCCC[C@@H]1O)Cn1c(C(F)(F)F)nc2cc(Cl)c(Cl)cc21` [Example 50, 1-(5,6-dichloro-2-(trifluoromethyl)-1H-benzo[d]imidazol-1-yl)-3-((2R,3S)-3-hydroxypiperidin-2-yl)propan-2-one], the IC50 with NCI-H460 cells was no less than 30 µM; in test [1] (setting [2]), greater than 0.5 µM.

Consider `CN(C)Cc1nc2cc(Cl)c(Cl)cc2n1CC(=O)C[C@H]1NCCC[C@@H]1O` [Example 51, 1-(5,6-dichloro-2-((dimethylamino)methyl)-1H-benzo[d]imidazol-1-yl)-3-((2R,3S)-3-hydroxypiperidin-2-yl)propan-2-one], for which the figures for the IC50 (in the test with NCI-H460 cells; in test [1] (setting [2])) were no less than 30 µM and greater than 0.5 µM, respectively.

In the case of `Cc1c(C#N)cnc2c1ccn2CC(=O)C[C@H]1NCCC[C@@H]1O` [Example 95, 1-(3-((2R,3S)-3-hydroxypiperidin-2-yl)-2-oxopropyl)-4-methyl-1H-pyrrolo[2,3-b]pyridin-5-carbonitrile], the half-inhibitory concentration (IC50) was no less than 30 µM in the test on NCI-H460 cells and greater than 0.5 µM in test [1].

With `Cc1c(Cl)ccc2c1ncn2CC(=O)C[C@H]1NCCC[C@@H]1O` [Example 14, 1-(5-chloro-4-methyl-1H-benzo[d]imidazol-1-yl)-3-((2R,3S)-3-hydroxypiperidin-2-yl)propan-2-one], the 50% inhibitory concentration (IC50) in the test on NCI-H460 cells was no more than 5 µM; in test [1] (setting [2]), less than 0.1 µM.

As to `CC(O)(C[C@H]1NCCC[C@@H]1O)Cn1cnc2cc(Cl)c(Cl)cc21` (stereo partly drawn) [Example 84, (2R,3S)-2-(3-(5,6-dichloro-1H-benzo[d]imidazol-1-yl)-2-hydroxy-2-methylpropyl)piperidin-3-ol], the figures for the half-maximal inhibitory concentration (IC50) (with NCI-H460 cells; in test [1] (setting [2])) were no less than 30 µM and greater than 0.5 µM, respectively.

`Cc1cc(Br)cc2c1ncn2CC(=O)C[C@H]1NCCC[C@@H]1O` [Example 23, 1-(6-bromo-4-methyl-1H-benzo[d]imidazol-1-yl)-3-((2R,3S)-3-hydroxypiperidin-2-yl)propan-2-one]: the half-inhibitory concentration (IC50) with NCI-H460 cells is 5 to 30 µM; in test [1] (setting [2]) it was less than 0.1 µM.

For the compound `O=C(C[C@H]1NCCC[C@@H]1O)Cn1cnc2c(F)c(F)ccc21` [Example 11, 1-(4,5-difluoro-1H-benzo[d]imidazol-1-yl)-3-((2R,3S)-3-hydroxypiperidin-2-yl)propan-2-one], the half-maximal inhibitory concentration (IC50) in the test with NCI-H460 cells was in the range of 5 to 30 µM; in test [1] (setting [2]), 0.1 to 0.5 µM.

With `Cc1cc2ncn(CC(=O)C[C@H]3NCCC[C@@H]3O)c2cc1C` [Example 9, 1-(5,6-dimethyl-1H-benzo[d]imidazol-1-yl)-3-((2R,3S)-3-hydroxypiperidin-2-yl)propan-2-one], the 50% inhibitory concentration (IC50) in the test on NCI-H460 cells was no less than 30 µM; in test [1] (setting [2]), less than 0.1 µM.

Turning to `O=C(C[C@H]1NCCC[C@@H]1O)Cn1cnc2cccc(C(F)(F)F)c21` [Example 8, 1-((2R,3S)-3-hydroxypiperidin-2-yl)-3-(7-(trifluoromethyl)-1H-benzo[d]imidazol-1-yl)propan-2-one], the IC50 was 5 to 30 µM in the test on NCI-H460 cells and less than 0.1 µM in test [1] (setting [2]).

As to `N#Cc1cnc2c(c1)ncn2CC(=O)C[C@H]1NCCC[C@@H]1O` [Example 38, 3-(3-((2R,3S)-3-hydroxypiperidin-2-yl)-2-oxopropyl)-3H-imidazo[4,5-b]pyridine-6-carbonitrile], the half-inhibitory concentration (IC50) in the test on NCI-H460 cells is no less than 30 µM; in test [1] (setting [2]) it was 0.1 to 0.5 µM.

Take `Cc1c(Br)cnc2c1ncn2CC(O)C[C@H]1NCCC[C@@H]1O` (stereo partly drawn) [Example 78, (2R,3S)-2-(3-(6-bromo-7-methyl-3H-imidazo[4,5-b]pyridin-3-yl)-2-hydroxypropyl)piperidin-3-ol]: the 50% inhibitory concentration (IC50) in the test with NCI-H460 cells is no less than 30 µM; in test [1] (setting [2]) it was less than 0.1 µM.

Turning to `O[C@H]1CCCN[C@@H]1CC(F)(F)Cn1cnc2cc(Cl)c(Cl)cc21` [Example 82, (2R,3S)-2-(3-(5,6-dichloro-1H-benzo[d]imidazol-1-yl)-2,2-difluoropropyl)piperidin-3-ol], the IC50 in the test with NCI-H460 cells is no less than 30 µM; in test [1] (setting [2]), greater than 0.5 µM.

For `O=C(C[C@H]1NCCC[C@@H]1O)Cn1c(CO)nc2ccccc21` [Example 56, 1-(2-(hydroxymethyl)-1H-benzo[d]imidazol-1-yl)-3-((2R,3S)-3-hydroxypiperidin-2-yl)propan-2-one], the IC50 in the test on NCI-H460 cells was no less than 30 µM; in test [1] (setting [2]) it was less than 0.1 µM.

As for `O=C(C[C@H]1NCCC[C@@H]1O)Cn1cnc2cc(C(F)(F)F)ccc21` [Example 6, 1-((2R,3S)-3-hydroxypiperidin-2-yl)-3-(5-(trifluoromethyl)-1H-benzo[d]imidazol-1-yl)propan-2-one], the concentration for half-maximal inhibition (IC50) in the test on NCI-H460 cells was no less than 30 µM; in test [1] (setting [2]), 0.1 to 0.5 µM.
